Data published in patent US5744444A, “HPTH-fragment-(1-37), the preparation thereof, medicaments containing same and the use thereof” (HaemoPep Pharma GmbH, priority 1989, dated 1998).

B1: hPTH-(1-84): the secreted PTH molecule consisting of 84 amino acids (peptide, UniProt P01270 32-115, looked up)
Parathyroid hormone: SVSEIQLMHNLGKHLNSMERVEWLRKKLQDVHNFVALGAPLAPRDAGSQRPRKKEDNVLVESHEKSLGEADKADVNVLTKAKSQ
modifications: Parathyroid hormone
notes: the secreted PTH molecule consisting of 84 amino acids

Legend:
[1] = secondary structure by UV circular dichroism; format: physicochemical; conditions: 50 μg/ml, 10 mM Tris-HCl buffer pH 7.5, room temperature, 190-240 nm; calculated by the method of Reed and Kinzel
Experimental: The circular dichroism was measured by means of a Jasco J-500 Automatic Recording Spectropolarimeter coupled with a Jasco DP-500 Data Processor. For the determination of the secondary structure, the measurement was carried out in the spectral range of from 190 nm to 240 nm at room temperature in a selected quartz cuvette at a light path of 1 mm. The parathormone concentrations employed were 50 μg/ml of hPTH-(1-33), 50 μg/ml of hPTH-(1-37) and 50 μg/ml of hPTH-(1-38). 10 mM Tris-HCl buffer pH 7.5 was used for dissolution (other conditions of the measurement: Sensitivity 2 milli-degrees/cm; time constant 2 seconds; recorder speed: 4 nm/min; wave length expansion: 5 nm/cm). The curves in FIG. 13 for hPTH-(1-33) hPTH-(1-37) and hPTH-(1-38) are average values for the signals from 4 subsequent measurements minus the base line values.
The evaluation for determining the secondary structure was performed in accordance with the method described by Reed and Kinzel (Biochemistry 23, 1357-1362, 1984).

hPTH-(53-84)-RIA = conditions: synthetic hPTH peptides; data provided by the producer (Immundiagnostik); cited from earlier work
hPTH-(44-68)-RIA = conditions: synthetic hPTH peptides; data provided by the producer (Immundiagnostik); cited from earlier work

Molecule | α-helix proportion of the secondary structure [1] | cross-reaction in the hPTH-(53-84)-RIA (hPTH-(53-84)-RIA) | cross-reaction in the hPTH-(44-68)-RIA (hPTH-(44-68)-RIA)
hPTH-(1-33): synthetic N-terminal human PTH fragment, comparison peptide (SVSEIQLMHNLGKHLNSMERVEWLRKKLQDVHN; Parathyroid hormone; UniProt P01270 32-64, looked up, fragment) | similarly low as in hPTH-(1-38) | – | –
hPTH-(44-68): synthetic hPTH peptide, standard of the medium-regional RIA (RDAGSQRPRKKEDNVLVESHEKSLG; Parathyroid hormone; UniProt P01270 75-99, looked up, fragment) | – | do not show any cross-reaction | –
hPTH-(1-34): known synthetic amino-terminal partial sequence of human PTH (SVSEIQLMHNLGKHLNSMERVEWLRKKLQDVHNF; Parathyroid hormone; UniProt P01270 32-65, looked up, fragment) | – | do not show any cross-reaction | do not show any cross-reaction
hPTH-(28-48): synthetic hPTH peptide tested for cross-reaction in the RIAs (LQDVHNFVALGAPLAPRDAGS; Parathyroid hormone; UniProt P01270 59-79, looked up, fragment) | – | do not show any cross-reaction | do not show any cross-reaction
hPTH-(1-38): known synthetic amino-terminal partial sequence of human PTH, comparison peptide (SVSEIQLMHNLGKHLNSMERVEWLRKKLQDVHNFVALG; Parathyroid hormone; UniProt P01270 32-69, looked up, fragment) | about 27% | – | –
hPTH-(53-84): synthetic hPTH peptide, standard of the C-terminal RIA (KKEDNVLVESHEKSLGEADKADVNVLTKAKSQ; Parathyroid hormone; UniProt P01270 84-115, looked up, fragment) | – | – | 100%
hPTH-(64-84): synthetic hPTH peptide tested for cross-reaction in the RIAs (EKSLGEADKADVNVLTKAKSQ; Parathyroid hormone; UniProt P01270 95-115, looked up, fragment) | – | 100% | do not show any cross-reaction
B1 | – | 100% | 100%
